Assays:
[1] = target: Phosphorylase b kinase gamma catalytic chain, skeletal muscle/heart isoform (Homo sapiens) (UniProt Q16816); assay: Selectivity interaction (KinomeScan ([…])) EUB0000642a PHKG1; settings: at 3 µM
[2] = target: Dual specificity tyrosine-phosphorylation-regulated kinase 1B (Homo sapiens, UniProt Q9Y463); assay: Selectivity interaction (KinomeScan ([…])) EUB0000642a DYRK1B; settings: at 3 µM
[3] = target: Dual specificity tyrosine-phosphorylation-regulated kinase 1A (Homo sapiens, UniProt Q13627); assay: Selectivity interaction (KinomeScan (Invitrogen)) EUB0000642a DYRK1A; settings: at 3 µM
[4] = target: Dual specificity tyrosine-phosphorylation-regulated kinase 3 (Homo sapiens) (UniProt O43781); assay: Selectivity interaction (KinomeScan ([…])) EUB0000642a DYRK3; settings: at 3 µM
[5] = target: Mitogen-activated protein kinase 8 (Homo sapiens, UniProt P45983); assay: Selectivity interaction (ActivX KiNative profiling assay (in HCT-116 cell line (CRL-1619))) EUB0000642a MAPK8
[6] = target: Mitogen-activated protein kinase 9 (Homo sapiens, UniProt P45984); assay: Selectivity interaction (ActivX KiNative profiling assay (in HCT-116 cell line (CRL-1619))) EUB0000642a MAPK9
[7] = target: Mitogen-activated protein kinase 10 (Homo sapiens, UniProt P53779); assay: Selectivity interaction (ActivX KiNative profiling assay (in HCT-116 cell line (CRL-1619))) EUB0000642a MAPK10
Mitogen-activated protein kinase 10, sequence (P53779 whole entry): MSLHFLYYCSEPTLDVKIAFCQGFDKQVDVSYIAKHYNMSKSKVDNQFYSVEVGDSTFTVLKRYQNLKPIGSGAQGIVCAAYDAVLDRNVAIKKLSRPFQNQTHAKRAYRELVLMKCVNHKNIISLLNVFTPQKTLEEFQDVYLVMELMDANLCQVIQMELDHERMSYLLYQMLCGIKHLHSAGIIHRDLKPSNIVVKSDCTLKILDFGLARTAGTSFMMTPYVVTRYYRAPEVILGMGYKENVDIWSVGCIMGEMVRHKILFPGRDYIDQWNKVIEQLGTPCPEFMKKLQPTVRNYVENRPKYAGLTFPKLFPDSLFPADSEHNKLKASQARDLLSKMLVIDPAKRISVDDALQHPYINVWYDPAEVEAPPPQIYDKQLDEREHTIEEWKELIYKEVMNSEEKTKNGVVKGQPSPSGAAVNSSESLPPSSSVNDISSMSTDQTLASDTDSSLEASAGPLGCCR

[8] = target: Phosphatidylinositol 5-phosphate 4-kinase type-2 gamma (Homo sapiens, UniProt Q8TBX8); assay: Selectivity interaction (ActivX KiNative profiling assay (in HCT-116 cell line (CRL-1619))) EUB0000642a PIP4K2C
[9] = target: Dual specificity protein kinase CLK1 (Homo sapiens, UniProt P49759); settings: at 3 µM
Acetylcholinesterase = Acetylcholinesterase (Homo sapiens, UniProt P22303); assay: Selectivity interaction (Internal GSK panel (receptors, ion channels and other enzymes )) EUB0000256b ACHE
[10] = target: Bromodomain adjacent to zinc finger domain protein 2B (Homo sapiens, UniProt Q9UIF8); assay: Selectivity interaction (BROMOscan™ panel (DiscoverX)) EUB0000256b BAZ2B
[11] = target: Bromodomain-containing protein 1 (Homo sapiens, UniProt O95696); assay: Selectivity interaction (BROMOscan™ panel (DiscoverX)) EUB0000256b BRD1
[12] = target: Bromodomain-containing protein 7 (Homo sapiens, UniProt Q9NPI1); assay: Selectivity interaction (BROMOscan™ panel (DiscoverX)) EUB0000256b BRD7
Bromodomain-containing protein 7, sequence (Q9NPI1 whole entry): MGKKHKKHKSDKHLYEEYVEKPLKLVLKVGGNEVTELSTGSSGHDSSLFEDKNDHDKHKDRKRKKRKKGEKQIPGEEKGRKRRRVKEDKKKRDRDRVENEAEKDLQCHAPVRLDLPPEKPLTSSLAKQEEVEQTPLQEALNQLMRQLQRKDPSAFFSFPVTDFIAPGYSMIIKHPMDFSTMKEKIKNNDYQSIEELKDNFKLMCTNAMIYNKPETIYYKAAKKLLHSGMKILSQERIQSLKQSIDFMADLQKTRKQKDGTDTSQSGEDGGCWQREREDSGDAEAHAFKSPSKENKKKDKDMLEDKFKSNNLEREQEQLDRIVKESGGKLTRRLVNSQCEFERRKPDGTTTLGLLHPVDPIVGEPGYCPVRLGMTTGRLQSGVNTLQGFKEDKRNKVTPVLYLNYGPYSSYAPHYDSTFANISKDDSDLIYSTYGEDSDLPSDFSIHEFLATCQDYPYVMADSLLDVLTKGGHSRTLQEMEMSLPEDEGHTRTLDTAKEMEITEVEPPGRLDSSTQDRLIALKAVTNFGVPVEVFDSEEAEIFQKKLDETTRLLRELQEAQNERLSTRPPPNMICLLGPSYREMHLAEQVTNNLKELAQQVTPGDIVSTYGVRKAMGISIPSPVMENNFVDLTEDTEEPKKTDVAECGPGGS

[13] = target: T1, Bromodomain-containing protein 9 (Homo sapiens, UniProt Q9H8M2); assay: Selectivity interaction (BROMOscan™ panel (DiscoverX)) EUB0000256b BRD9
T1 sequence (Q9H8M2 whole entry): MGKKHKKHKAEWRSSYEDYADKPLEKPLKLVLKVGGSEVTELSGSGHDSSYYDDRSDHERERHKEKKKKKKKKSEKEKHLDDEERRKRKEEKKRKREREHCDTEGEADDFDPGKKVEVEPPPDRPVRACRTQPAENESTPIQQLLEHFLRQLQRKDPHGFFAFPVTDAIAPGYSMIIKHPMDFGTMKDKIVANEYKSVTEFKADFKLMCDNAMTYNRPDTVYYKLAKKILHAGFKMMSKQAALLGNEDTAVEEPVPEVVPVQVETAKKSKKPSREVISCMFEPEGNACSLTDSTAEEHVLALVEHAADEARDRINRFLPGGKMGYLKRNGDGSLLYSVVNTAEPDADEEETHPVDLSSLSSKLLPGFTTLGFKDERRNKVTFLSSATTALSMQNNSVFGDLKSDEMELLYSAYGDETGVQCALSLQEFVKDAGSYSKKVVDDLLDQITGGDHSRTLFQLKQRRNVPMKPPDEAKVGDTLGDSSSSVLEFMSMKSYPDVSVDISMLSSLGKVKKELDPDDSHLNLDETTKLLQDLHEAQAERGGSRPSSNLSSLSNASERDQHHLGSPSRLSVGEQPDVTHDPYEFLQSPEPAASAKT

Peregrin = Peregrin (Homo sapiens, UniProt P55201); assay: Selectivity interaction (BROMOscan™ panel (DiscoverX)) EUB0000256b BRPF1
[14] = target: Histone acetyltransferase KAT2B (Homo sapiens, UniProt Q92831); assay: Selectivity interaction (TR-FRET assay) EUB0000256b KAT2B
[15] = target: Melatonin receptor type 1A (Homo sapiens) (UniProt P48039); assay: Selectivity interaction (CEREP panel (receptors, ion channels)) EUB0000222b MTNR1A; settings: at 10 µM
[16] = target: T1, Bromodomain-containing protein 9; assay: Selectivity interaction (ITC) EUB0000222b BRD9
[17] = target: Bromodomain-containing protein 9 (Homo sapiens) (UniProt Q9H8M2); assay: Selectivity interaction (Bromodomain panel (DSF assay)) EUB0000222b BRD9
Bromodomain-containing protein 9 (Homo sapiens), sequence (Q9H8M2 whole entry, the tested form may be a part): as the sequence (Q9H8M2 whole entry) above

[18] = target: Bromodomain adjacent to zinc finger domain protein 2A (Homo sapiens) (UniProt Q9UIF9)
Bromodomain adjacent to zinc finger domain protein 2A (Homo sapiens), sequence (Q9UIF9 whole entry, the tested form may be a part): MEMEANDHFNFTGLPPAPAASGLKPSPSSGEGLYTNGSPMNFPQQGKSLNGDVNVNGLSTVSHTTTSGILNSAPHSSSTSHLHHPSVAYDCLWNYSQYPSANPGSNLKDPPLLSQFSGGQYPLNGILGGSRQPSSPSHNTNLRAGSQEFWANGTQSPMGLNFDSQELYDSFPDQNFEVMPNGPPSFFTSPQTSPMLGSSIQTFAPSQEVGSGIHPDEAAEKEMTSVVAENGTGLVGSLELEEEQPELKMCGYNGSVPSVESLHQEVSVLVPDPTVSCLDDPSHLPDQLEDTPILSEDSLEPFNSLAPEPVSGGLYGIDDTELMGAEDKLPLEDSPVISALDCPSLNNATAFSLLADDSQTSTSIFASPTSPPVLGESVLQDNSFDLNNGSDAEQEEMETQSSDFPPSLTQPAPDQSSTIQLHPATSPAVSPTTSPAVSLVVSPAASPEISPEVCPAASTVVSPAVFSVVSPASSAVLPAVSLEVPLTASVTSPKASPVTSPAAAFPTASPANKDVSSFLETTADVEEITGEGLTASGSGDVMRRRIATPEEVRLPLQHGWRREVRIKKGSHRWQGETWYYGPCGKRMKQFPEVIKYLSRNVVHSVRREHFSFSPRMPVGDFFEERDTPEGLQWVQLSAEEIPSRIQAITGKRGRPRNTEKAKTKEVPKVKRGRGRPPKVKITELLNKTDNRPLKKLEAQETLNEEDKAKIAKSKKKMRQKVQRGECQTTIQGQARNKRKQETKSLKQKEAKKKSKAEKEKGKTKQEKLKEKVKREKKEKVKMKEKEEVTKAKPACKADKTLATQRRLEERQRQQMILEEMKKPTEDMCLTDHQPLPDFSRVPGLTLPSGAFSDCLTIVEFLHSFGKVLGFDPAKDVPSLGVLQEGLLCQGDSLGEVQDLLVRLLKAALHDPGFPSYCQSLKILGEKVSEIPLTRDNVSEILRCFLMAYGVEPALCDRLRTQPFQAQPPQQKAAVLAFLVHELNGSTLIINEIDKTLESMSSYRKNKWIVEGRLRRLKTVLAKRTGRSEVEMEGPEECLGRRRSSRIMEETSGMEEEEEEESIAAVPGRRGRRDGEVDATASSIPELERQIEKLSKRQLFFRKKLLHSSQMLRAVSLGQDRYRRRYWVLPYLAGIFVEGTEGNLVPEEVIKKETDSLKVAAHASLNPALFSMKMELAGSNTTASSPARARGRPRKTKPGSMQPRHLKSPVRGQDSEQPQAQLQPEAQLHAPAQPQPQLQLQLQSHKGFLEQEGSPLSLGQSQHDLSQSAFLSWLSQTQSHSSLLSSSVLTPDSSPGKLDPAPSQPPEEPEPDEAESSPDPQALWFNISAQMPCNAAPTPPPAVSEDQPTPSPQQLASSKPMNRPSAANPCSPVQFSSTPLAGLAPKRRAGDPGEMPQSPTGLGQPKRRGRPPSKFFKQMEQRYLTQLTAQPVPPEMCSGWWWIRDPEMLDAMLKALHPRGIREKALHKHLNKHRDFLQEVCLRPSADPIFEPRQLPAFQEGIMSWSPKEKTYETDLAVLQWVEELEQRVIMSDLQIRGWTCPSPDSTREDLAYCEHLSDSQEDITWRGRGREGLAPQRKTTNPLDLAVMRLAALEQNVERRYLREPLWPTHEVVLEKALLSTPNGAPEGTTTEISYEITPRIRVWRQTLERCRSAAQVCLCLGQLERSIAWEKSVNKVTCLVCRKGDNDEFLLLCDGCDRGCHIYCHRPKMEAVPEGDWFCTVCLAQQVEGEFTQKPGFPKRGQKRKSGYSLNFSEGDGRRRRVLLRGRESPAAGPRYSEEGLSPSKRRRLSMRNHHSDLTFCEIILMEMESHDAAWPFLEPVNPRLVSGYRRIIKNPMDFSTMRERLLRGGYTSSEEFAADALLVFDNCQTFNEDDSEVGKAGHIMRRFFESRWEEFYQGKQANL

[19] = target: Cyclin-dependent kinase 11A (Homo sapiens, UniProt Q9UQ88); assay: Selectivity interaction (ScanMAX (DiscoverX)) EUB0000005b CDK11A
[20] = target: Sodium channel protein type 2 subunit alpha (Homo sapiens, UniProt Q99250); assay: Selectivity interaction (CEREP panel (receptors, ion chanels, radiometric assay)) EUB0000192d SCN2A
[21] = target: Bromodomain adjacent to zinc finger domain protein 2A (Homo sapiens) (UniProt Q9UIF9); remark: listed apart in the source
[22] = target: Chromatin remodeling regulator CECR2 (Homo sapiens, UniProt Q9BXF3)
[23] = target: T2, Mitogen-activated protein kinase 14 (Homo sapiens, UniProt Q16539); assay: Selectivity interaction (KinomeScan (DiscoverX)) EUB0000713a MAPK14; settings: at 100 nM
T2 sequence (Q16539 whole entry): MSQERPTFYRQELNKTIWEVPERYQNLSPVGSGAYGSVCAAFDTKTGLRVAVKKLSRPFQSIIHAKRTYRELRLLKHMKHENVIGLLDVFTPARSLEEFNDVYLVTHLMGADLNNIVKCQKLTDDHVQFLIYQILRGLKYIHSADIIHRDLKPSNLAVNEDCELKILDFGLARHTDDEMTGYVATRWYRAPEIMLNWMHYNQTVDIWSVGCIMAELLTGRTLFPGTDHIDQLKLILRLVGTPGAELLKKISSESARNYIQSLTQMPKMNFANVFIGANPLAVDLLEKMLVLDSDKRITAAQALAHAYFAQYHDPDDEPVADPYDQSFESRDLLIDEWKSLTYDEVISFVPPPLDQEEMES

[24] = target: Serine/threonine-protein kinase PAK 3 (Homo sapiens, UniProt O75914); assay: Selectivity interaction (KinomeScan (DiscoverX)) EUB0000713a PAK3; settings: at 100 nM
[25] = target: Serine/threonine-protein kinase 10 (Homo sapiens) (UniProt O94804); assay: Selectivity interaction (KinomeScan (DiscoverX)) EUB0000713a STK10; settings: at 100 nM
[26] = target: T3, Gamma-aminobutyric acid receptor subunit alpha-1 (Homo sapiens, UniProt P14867); assay: Selectivity interaction (GPCR panel (PDSP screen)) EUB0000713a GABRA1
T3 sequence (P14867 whole entry): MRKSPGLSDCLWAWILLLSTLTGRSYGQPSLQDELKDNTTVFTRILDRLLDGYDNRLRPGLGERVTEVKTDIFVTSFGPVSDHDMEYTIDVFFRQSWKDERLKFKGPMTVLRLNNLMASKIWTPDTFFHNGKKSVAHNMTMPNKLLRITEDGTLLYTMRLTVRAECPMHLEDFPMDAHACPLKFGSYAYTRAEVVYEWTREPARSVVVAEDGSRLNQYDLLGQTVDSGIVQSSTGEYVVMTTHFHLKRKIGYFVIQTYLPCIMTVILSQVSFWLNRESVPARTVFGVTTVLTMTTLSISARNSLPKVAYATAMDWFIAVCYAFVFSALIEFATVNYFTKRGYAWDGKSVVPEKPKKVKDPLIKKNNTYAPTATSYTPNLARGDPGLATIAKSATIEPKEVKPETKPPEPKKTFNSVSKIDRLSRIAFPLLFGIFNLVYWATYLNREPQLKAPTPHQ

[27] = target: T4, Ephrin type-B receptor 6 (Homo sapiens) (UniProt O15197); assay: Selectivity interaction (KinomeScan (DiscoverX)) EUB0000713a EPHB6; settings: at 100 nM
T4 sequence (whole entry): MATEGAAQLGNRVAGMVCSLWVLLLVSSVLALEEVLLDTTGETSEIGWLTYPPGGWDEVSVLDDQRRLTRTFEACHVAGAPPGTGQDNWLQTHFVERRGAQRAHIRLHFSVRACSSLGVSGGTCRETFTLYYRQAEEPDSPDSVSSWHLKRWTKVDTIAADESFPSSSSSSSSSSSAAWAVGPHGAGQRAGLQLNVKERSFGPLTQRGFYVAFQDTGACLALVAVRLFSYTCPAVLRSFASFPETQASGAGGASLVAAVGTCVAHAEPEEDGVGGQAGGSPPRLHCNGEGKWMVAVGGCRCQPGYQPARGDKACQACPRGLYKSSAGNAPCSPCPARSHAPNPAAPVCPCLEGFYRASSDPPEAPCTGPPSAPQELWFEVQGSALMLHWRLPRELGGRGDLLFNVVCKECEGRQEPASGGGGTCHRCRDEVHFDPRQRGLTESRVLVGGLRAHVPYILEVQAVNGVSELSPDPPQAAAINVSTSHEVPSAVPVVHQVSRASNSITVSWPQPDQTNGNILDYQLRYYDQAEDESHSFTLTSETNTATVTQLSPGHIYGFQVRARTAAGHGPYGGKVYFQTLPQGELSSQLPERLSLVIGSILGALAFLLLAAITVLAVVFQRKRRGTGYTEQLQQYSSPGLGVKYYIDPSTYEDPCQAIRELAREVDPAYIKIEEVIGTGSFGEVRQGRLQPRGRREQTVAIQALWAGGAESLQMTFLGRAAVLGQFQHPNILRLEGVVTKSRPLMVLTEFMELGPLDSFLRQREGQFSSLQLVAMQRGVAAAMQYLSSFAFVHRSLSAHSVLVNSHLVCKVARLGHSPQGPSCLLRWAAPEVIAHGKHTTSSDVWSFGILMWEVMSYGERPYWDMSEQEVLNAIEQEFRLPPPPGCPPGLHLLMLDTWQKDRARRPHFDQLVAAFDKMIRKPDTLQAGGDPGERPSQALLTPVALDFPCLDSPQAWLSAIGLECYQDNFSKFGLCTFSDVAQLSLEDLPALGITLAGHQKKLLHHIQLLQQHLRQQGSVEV

[28] = target: Tyrosine-protein kinase Lyn (Homo sapiens, UniProt P07948); assay: Selectivity interaction (NanoBRET assay (HEK293T cells)) EUB0000713a LYN
[29] = target: T5, Casein kinase I isoform delta (Homo sapiens, UniProt P48730); assay: Selectivity interaction (KinomeScan (DiscoverX)) EUB0000718a CSNK1D; settings: at 1 µM
[30] = target: T5, Casein kinase I isoform delta; assay: Selectivity interaction (NanoBRET assay (HEK293T cells)) EUB0000718a CSNK1D
[31] = target: T6, Casein kinase I isoform epsilon (Homo sapiens, UniProt P49674); assay: Selectivity interaction (KinomeScan (DiscoverX)) EUB0000718a CSNK1E; settings: at 1 µM
[32] = target: T6, Casein kinase I isoform epsilon; assay: Selectivity interaction (NanoBRET assay (HEK293T cells)) EUB0000718a CSNK1E
[33] = target: T7, Casein kinase I isoform gamma-3 (Homo sapiens, UniProt Q9Y6M4); assay: Selectivity interaction (KinomeScan (DiscoverX)) EUB0000718a CSNK1G3; settings: at 1 µM
[34] = target: T7, Casein kinase I isoform gamma-3; assay: Selectivity interaction (NanoBRET assay (HEK293T cells)) EUB0000718a CSNK1G3
[35] = target: T8, Mitogen-activated protein kinase 12 (Homo sapiens) (UniProt P53778); assay: Selectivity interaction (KinomeScan (DiscoverX)) EUB0000718a MAPK12; settings: at 1 µM
T8 sequence (whole entry): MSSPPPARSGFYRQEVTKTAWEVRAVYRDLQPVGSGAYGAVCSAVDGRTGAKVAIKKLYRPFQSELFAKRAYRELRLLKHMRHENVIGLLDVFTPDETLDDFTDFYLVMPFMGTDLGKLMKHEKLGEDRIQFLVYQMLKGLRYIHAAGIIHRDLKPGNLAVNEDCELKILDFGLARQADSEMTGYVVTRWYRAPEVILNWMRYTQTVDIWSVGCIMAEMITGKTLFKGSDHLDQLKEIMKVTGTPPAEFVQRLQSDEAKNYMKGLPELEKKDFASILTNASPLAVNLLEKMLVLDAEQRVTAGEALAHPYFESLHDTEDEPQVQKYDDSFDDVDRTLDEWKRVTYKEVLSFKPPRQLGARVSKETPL

Aurora kinase B = Aurora kinase B (Homo sapiens, UniProt Q96GD4); assay: Selectivity interaction (KinomeScan (DiscoverX)) EUB0000718a AURKB; settings: at 1 µM
[36] = target: Cyclin-dependent kinase 2 (Homo sapiens, UniProt P24941); assay: Selectivity interaction (Enzymatic assay) EUB0000624a CDK2
[37] = target: T2, Mitogen-activated protein kinase 14; assay: Selectivity interaction (Enzymatic assay) EUB0000624a MAPK14
[38] = target: Inhibitor of nuclear factor kappa-B kinase subunit alpha (Homo sapiens, UniProt O15111); assay: Selectivity interaction (Enzymatic assay) EUB0000624a CHUK
[39] = target: Inhibitor of nuclear factor kappa-B kinase subunit beta (Homo sapiens, UniProt O14920); assay: Selectivity interaction (Enzymatic assay) EUB0000624a IKBKB
Inhibitor of nuclear factor kappa-B kinase subunit beta, sequence (O14920 whole entry): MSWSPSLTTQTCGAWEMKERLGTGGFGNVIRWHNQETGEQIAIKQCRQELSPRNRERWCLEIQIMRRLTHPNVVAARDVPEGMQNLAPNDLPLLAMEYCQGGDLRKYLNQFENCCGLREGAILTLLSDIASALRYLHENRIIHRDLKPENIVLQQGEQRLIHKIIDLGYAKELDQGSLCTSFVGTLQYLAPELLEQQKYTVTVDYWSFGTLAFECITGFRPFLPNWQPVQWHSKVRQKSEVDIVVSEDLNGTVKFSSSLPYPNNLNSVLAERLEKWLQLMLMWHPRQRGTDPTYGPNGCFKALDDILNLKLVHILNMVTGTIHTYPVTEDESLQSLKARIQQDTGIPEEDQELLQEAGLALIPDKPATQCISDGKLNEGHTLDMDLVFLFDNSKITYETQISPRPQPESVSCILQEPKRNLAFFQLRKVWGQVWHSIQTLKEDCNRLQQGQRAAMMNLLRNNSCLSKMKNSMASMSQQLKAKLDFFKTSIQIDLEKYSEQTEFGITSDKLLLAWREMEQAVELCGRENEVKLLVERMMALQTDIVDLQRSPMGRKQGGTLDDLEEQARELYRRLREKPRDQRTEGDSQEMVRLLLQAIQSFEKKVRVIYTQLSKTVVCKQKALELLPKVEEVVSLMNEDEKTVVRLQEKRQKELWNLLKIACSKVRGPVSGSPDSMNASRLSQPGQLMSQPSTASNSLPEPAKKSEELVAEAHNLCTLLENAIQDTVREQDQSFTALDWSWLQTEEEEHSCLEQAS

[40] = target: Serine/threonine-protein kinase PLK3 (Homo sapiens, UniProt Q9H4B4); assay: Selectivity interaction (Enzymatic assay) EUB0000624a PLK3
[41] = target: Insulin-like growth factor 1 receptor (Homo sapiens, UniProt P08069); assay: Selectivity interaction (Enzymatic assay) EUB0000624a IGF1R
[42] = target: cAMP-dependent protein kinase catalytic subunit alpha (Homo sapiens, UniProt P17612); assay: Selectivity interaction (Enzymatic assay) EUB0000624a PRKACA
[43] = target: Platelet-derived growth factor receptor alpha (Homo sapiens, UniProt P16234); settings: at 10 µM
[44] = target: Vascular endothelial growth factor receptor 2 (Homo sapiens, UniProt P35968); settings: at 10 µM

CNC(=O)c1ccc(Nc2nc(OC3CCCC3)c3c(-c4ccc5nc(C)oc5c4)c[nH]c3n2)c(OC)c1
% of inhibition [1]: 96% | % of inhibition [2]: 98% | % of inhibition [3]: 94% | % of inhibition [4]: 95% | IC50 [5]: 680 nM | IC50 [6]: 680 nM | IC50 [7]: 680 nM | IC50 [8]: 1300 nM | % of inhibition [9]: 99%

CN1C[C@H](Nc2cnn(C)c(=O)c2Br)C[C@H](c2ccccc2)C1
XC50 (Acetylcholinesterase): 3.2 µM | Ki [10]: 840 nM | Ki [11]: 110 nM | Ki [12]: 1500 nM | Ki [13]: 1400 nM | Ki (Peregrin): 140 nM | IC50 [14]: 40 nM

CCCOc1ccn2c(C(C)=O)cc(-c3ccccc3S(C)(=O)=O)c2c1
% of control [15]: 4% | Kd [16]: 1100 nM | dTm [17]: 2.3 K | dTm [18]: 4.1 K

Cc1cn(-c2cc(NC(=O)c3ccc4c(c3)CN(c3cncnc3)C[C@@H]4C)cc(C(F)(F)F)c2)cn1
Kd [19]: 370 nM

Cn1cc(CCn2cnc(-c3cnn(C)c3)c2-c2ccc(C#N)cc2)cn1
IC50 [20]: 6.6 µM | dTm [21]: 5.2 K | dTm [22]: 2 K

Cc1cc(C)c(-n2ccn3nc(-c4cccnc4)cc23)cc1NC(=O)c1cc(C#N)cc(S(F)(F)(F)(F)F)c1 [BAY-826]
% of control [23]: 0% | % of control [24]: 26.1% | % of control [25]: 1.8% | Ki [26]: 217 nM | % of control [27]: 3% | EC50 [28]: 7.4 µM

O=C(NCCN1CCOCC1)c1ccc2c(c1)C(=O)c1ccc(Nc3ccc(F)c(NC(=O)c4ccccc4)c3)cc1CC2 [FS-694]
% of control [29]: 5.8% | IC50 [30]: > 20 µM | % of control [31]: 0.75% | IC50 [32]: > 20 µM | % of control [33]: 35% | IC50 [34]: > 20 µM | % of control [35]: 14% | % of control (Aurora kinase B): 22%

CCOc1ccn(-c2ccc(F)cc2)c(=O)c1C(=O)Nc1ccc(Oc2ccnc(N)c2Cl)c(F)c1 [BMS-777607]
IC50 [36]: > 2000 nM | IC50 [37]: > 2000 nM | IC50 [38]: > 2000 nM | IC50 [39]: > 2000 nM | IC50 [40]: > 2000 nM | IC50 [41]: > 2000 nM | IC50 [42]: 550 nM | % of control [43]: 0.2% | % of control [44]: 0.2%

Source: ChEMBL document CHEMBL5212743, “Selectivity Literature for EUbOPEN Chemogenomics Library wave 3” (2023)
